Test results: patent publication US20040096894A1, “Crystal structures of P- selectin, P- and E-selectin complexes, and uses thereof” (priority 2000, published 2004)
One block for each molecule: values may come before it. Numbered stars: 1 amine (or outer) side, 2 acyl side, 3 side chain; on linkers, the order of the positions; unused ones are H or OH. Square brackets hold non-standard residues; d marks the D form. Peptide text beside a SMILES is read from it. X1 = CC(=O)N[C@H]1[C@H](OC[C@H]2O[C@H](O[C@H](C)[C@H](N[*:1])C(=O)[*:2])[C@H](NC(C)=O)[C@@H](O[C@@H]3O[C@H](CO)[C@H](O)[C@H](O[C@]4(C(=O)O)C[C@H](O)[C@@H](NC(C)=O)[C@H]([C@H](O)[C@H](O)CO)O4)[C@H]3O)[C@H]2O)O[C@H](CO)[C@@H](O[C@@H]2O[C@H](CO)[C@H](O)[C@H](O[C@]3(C(=O)O)C[C@H](O)[C@@H](NC(C)=O)[C@H]([C@H](O)[C@H](O)CO)O3)[C@H]2O)[C@@H]1O[C@@H]1O[C@@H](C)[C@@H](O)[C@@H](O)[C@@H]1O; sY = N[C@@H](Cc1ccc(OS(=O)(=O)O)cc1)C(=O)O; pGlu = O=C1CC[C@@H](C(=O)O)N1

Key:
[1] = molecular target: T1, P-LE (lectin/EGF domains of P-selectin) (Homo sapiens, UniProt P16109); assay: BIAcore: inhibition of P-LE binding to immobilized sPSGL and SGP-3 by co-injected solution-phase peptide; conditions: P-LE at 800 nM; solution-phase inhibitor at 20 μM
T1 construct: The lectin-EGF (LE) domains (153 amino acids) of P-selectin (P-LE) and E-selectin (E-LE); IgG1 Fc (CH2-CH3 region) (C, cleaved yes); made in house; host or cells: CHO cells
T1 sequence (P16109 42-198): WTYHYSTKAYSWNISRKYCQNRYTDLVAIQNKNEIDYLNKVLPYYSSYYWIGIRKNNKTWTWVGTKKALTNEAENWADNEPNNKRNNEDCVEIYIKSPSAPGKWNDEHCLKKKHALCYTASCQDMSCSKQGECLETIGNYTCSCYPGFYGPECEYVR
Description: FIGS. 1B-1 and 1B-2: Representative BIAcore sensorgrams of solution-phase P-LE binding to immobilized PSGL-1 constructs. P-LE (at 800 nM concentration) was injected over sPSGL (FIGS. 1B-1) and SGP-3 (FIGS. 1B-2). […] P-LE binding to sPSGL and SGP-3 was inhibited by co-injection with solution-phase SGP-3 (dotted line) but not by a synthetic peptide containing no tyrosine sulfation or glycosylation (dashed line), both at 20 μM concentration. All curves reflect specific binding produced by subtracting non-specific binding from total binding.
P-LE/19ek Peptide Binding Studies. Surface plasmon resonance was performed on BIAcore 2000 and 3000 instruments at 25° C. using streptavidin-coated sensor chips (BIAcore) and HBS-P buffer (BIAcore; 10 mM HEPES (pH 7.4), 150 mM NaCl, and 0.005% polysorbate 20 (v/v)) adjusted to 1 mM each CaCl2 and MgCl2. The 19ek peptides and sPSGL, a fucosyltransferase-VII modified version of the entire dimeric extracellular domain of PSGL-1 (Croce et al., 1998), were biotinylated at Lys residues with Sulfo-NHS-LC-Biotin (Pierce). Following biotinylation, sPSGL was reacted with immobilized P-selectin in order to isolate functional material (Sako et al., 1995). […] Glycosylated P-LE and E-LE, quantitated by experimentally determined extinction coefficients (280 nm), were injected over the19ek peptide, sPSGL and control surfaces at 40 μL/min. […]

[2] = molecular target: T1, P-LE (lectin/EGF domains of P-selectin); assay: BIAcore surface plasmon resonance: solution-phase P-LE binding to immobilized sPSGL and PSGL-1 19ek peptides; conditions: immobilized ligand
Excerpt: FIGS. 1C-1-1C-6: Binding affinity determinations of solution-phase P-LE reacted with immobilized sPSGL and purified 19ek peptides by BIAcore analysis. First row, left-to-right: sPSGL (FIGS. 1C-1), SGP-3 (FIGS. 1C-2) and SGP-2 (FIGS. 1C-3). Second row, left-to-right: SGP-1 (FIGS. 1C-4), GP-1 (FIGS. 1C-5) and SP-1 (FIGS. 1C-6). P-LE at the indicated concentrations was reacted with immobilized ligands (to determine the total binding signal) and against control […] containing no ligand (to determine non-specific binding). The equilibrium responses (Req) at each concentration of P-LE are shown. At each P-LE concentration tested, specific binding signals (squares) were determined by subtracting non-specific responses (triangles) from total binding signals (diamonds). KDs and standard deviations (shown) were determined by line-fitting of specific binding curves using BIAevaluation software (BIAcore) and are the products of three-to-ten separate experiments. KD determinations using line-fitting agreed well with values determined by linear regression analysis of Scatchard plots (not shown).
P-LE/19ek Peptide Binding Studies. […] Glycosylated P-LE and E-LE, quantitated by experimentally determined extinction coefficients (280 nm), were injected over the19ek peptide, sPSGL and control surfaces at 40 μL/min. […]

[3] = test system: E-selectin relative P-selectin; conditions: Poppe et al., 1997; cited from earlier work

Molecule: CSCC[C@H](NC(=O)[C@H](CCSC)NC(=O)[C@@H]1CCCN1C(=O)[C@H](CCCNC(=N)N)NC(=O)[C@@H]1CCCN1C(=O)[C@@H]1CCCN1C(=O)[C@H](CCC(=O)O)NC(=O)[C@@H](NC(=O)[C@H](CCC(=O)O)NC(=O)[C@@H]1CCCN1C(=O)[C@H](CC(C)C)NC(=O)[C@H](Cc1ccccc1)NC(=O)[C@H](CC(=O)O)NC(=O)[C@H](Cc1ccc(OS(=O)(=O)O)cc1)NC(=O)[C@H](CC(=O)O)NC(=O)[C@H](CC(C)C)NC(=O)[C@H](Cc1ccc(OS(=O)(=O)O)cc1)NC(=O)[C@H](CCC(=O)O)NC(=O)[C@H](Cc1ccc(OS(=O)(=O)O)cc1)NC(=O)[C@H](CCC(=O)O)NC(=O)[C@@H](NC(=O)[C@H](C)NC(=O)[C@@H]1CCC(=O)N1)[C@@H](C)O)[C@@H](C)O[C@H]1O[C@H](CO[C@@H]2O[C@H](CO)[C@@H](O[C@@H]3O[C@H](CO)[C@H](O)[C@H](O[C@]4(C(=O)O)C[C@H](O)[C@@H](NC(C)=O)[C@H]([C@H](O)[C@H](O)CO)O4)[C@H]3O)[C@H](O[C@@H]3O[C@@H](C)[C@@H](O)[C@@H](O)[C@@H]3O)[C@H]2NC(C)=O)[C@H](O)[C@H](O[C@@H]2O[C@H](CO)[C@H](O)[C@H](O[C@]3(C(=O)O)C[C@H](O)[C@@H](NC(C)=O)[C@H]([C@H](O)[C@H](O)CO)O3)[C@H]2O)[C@H]1NC(C)=O)C(=O)N[C@@H](CC(=O)O)C(=O)N[C@@H](CC(=O)O)C(=O)N[C@@H](CC(=O)O)C(=O)N[C@@H](CC(=O)O)C(=O)N[C@@H](CCCCN)C(=O)O [SGP-3] ([pGlu]ATE[sY]E[sY]LD[sY]DFLPE[X1]EPPRPMMDDDDK-OH; C-terminus assumed)
inhibition of P-LE binding to immobilized sPSGL and SGP-3 by co-injection [1]: inhibited

binding affinity of P-LE in words, compared with SGP-3 or the modified species [2]: essentially identical affinity
Molecule: sPSGL: Fucosyltransferase-VII modified version of the entire dimeric extracellular domain of PSGL-1

Molecule: sialyl Lewis^X (SLe^X, NeuNAc2,3Gal1,4[Fuc1,3] GlcNAc) tetrasaccharide
higher SLe^X binding affinity for E-selectin relative P-selectin [3]: approximately 10 fold
